Measurements reported in patent US20260258004A1, “CRYSTALLINE FORMS OF (6S)-5-[4'-FLUORO-2-(TRIFLUOROMETHYL)BIPHENYL-4-YL]-6-METHYL-3,6- DIHYDRO-2H-l,3,4-OXADIAZIN-2-ONE” (Bayer Aktiengesellschaft, priority 2022, published 2026).

Experiments:
Assay type in all cases: physicochemical
[1] = Particle size analysis of micronized product, laser diffraction (Sympatec HELOS/RODOS, dry dispersion); conditions: micronized twice, air jet mill; dry dispersion at 4 bar
Source text: The instrumental set-up for particle size analysis: • Laser diffraction pattern analyzer (Sympatec HELOS, H1970 & RODOS, R3:0.5/0.9 . . . 175 μm), 100 mm focal length, • Dry dispersion (RODOS) at 4 bar, • Mathematical model (LD 5.9.0.0)-Sympatec Code, basis Fraunhofer Diffraction

[2] = Particle size distribution by laser diffraction (Malvern Panalytical Mastersizer 3000, Fraunhofer)
Protocol: The particle size distribution was measured by laser diffraction using the Malvern Panalytical Mastersizer 3000.
The samples are again taken from example 1.6 (probe 1) and example 1.5 (probe 2), the same as used in example 4.
The sample to be analyzed is dispersed in 1 drop of Tween 80 the sample is processed according to ISO13320.
Laser diffraction is an often-used method for determination the particle size of dispersed solid materials. A widened laser beam illuminates a cuvette which contains part of the particles. By diffraction on the particles a characteristic pattern can be mapped on the detector. The resulting diffraction image is the additive overlaying of diffraction images of all particles.
Besides the mentioned detector two additional detectors are mounted in order to detect diffraction light in forward direction (FA1,9), in wide angle (LA1,2) and in back direction (BS1,2). The turbidity of the sample is measured by an extinction sensor. This is necessary to ensure a low particle concentration which is necessary to avoid wrong results by multiple diffraction of light at several particles.
The cuvette used was a wet unit where the suspension is pumped in a closed circuit with a dispersing unit that ensures a separation of single particles by shear forces.
The measurement range of the Malvern 3000 covers a particle size from 1 mm (2 mm) down to 20 nm
The calculation of the particle size distribution from the diffraction patterns was done on basis of theory of Fraunhofer.
This assumption is valid for particle sizes of 10 to 50 μm and above. For smaller particles the light scattering of the particle itself due to optical transparency must be considered which is done in the Mie-theory (not used for our probes). Precondition of the application of the Mie-theory is the knowledge of the refractive and absorption index of the dispersed solids.
Q3 is the cumulative volume distribution, e.g. D50=Q(50%) indicates 50% of the volume part of the sample is smaller than particle size of 50 μm.
The particle size is expressed as an equivalent diameter used in the method recommended by the Malvern Analysis Program and as described in ISO13320.

[3] = Determination of bulk density during shear tests; conditions: during shear test, normal stress 1.5 kPa
Protocol: Because of the normal stress of 1.5 kPa applied on the top of the lid during the shear test the lid lowers into the shear cell and compresses the powder.
During the shear tests this lowering of the lid is measured and recorded. Since the volume of the bottom ring is known and weight of the sample measured before the beginning of the shear test the bulk density of the sample during the shear test is calculated
[formula] • with: • ρb,shear: Bulk density under shear • mges: total mass of shear cell including powder sample (w/o lid) • mcell: net mass of shear cell (w/o powder sample, w/o lid) • hc: height of the bottom ring • hl: lowering of lid • Acell: bottom area of shear cell
The calculation of the bulk density is done automatically with the evaluation software provided together with the shear tester.

[4] = Hygroscopicity classification applying the Pharmacopeia rules
Source text: The shear cell was fully filled with a sample of powder of the compound of formula (I) thereby preventing condensing the powder. Both samples, sample 1 and sample 2, were classified as non-hydroscopic applying the Pharmacopeia rules.

[5] = without ultrasound (US), listed as Probe 1

C[C@@H]1OC(=O)NN=C1c1ccc(-c2ccc(F)cc2)c(C(F)(F)F)c1 [micronized product, (6S)-5-[4′-fluoro-2-(trifluoromethyl)[biphenyl]-4-yl]-6-methyl-3,6-dihydro-2H-1,3,4-oxadiazin-2-one]
Particle Size distribution X10 [1]: 1.2 μm
Particle Size distribution X50 [1]: 4 μm
Particle Size distribution X90 [1]: 10 μm

C[C@@H]1OC(=O)NN=C1c1ccc(-c2ccc(F)cc2)c(C(F)(F)F)c1 [polymorph A, (6S)-5-[4′-Fluoro-2-(trifluoromethyl)biphenyl-4-yl]-6-methyl-3,6-dihydro-2H-1,3,4-oxadiazin-2-one]
difference between Q3[50] of untreated sample and sample treated 300 s with ultrasound [2]: large
D(10) ([2]; 300 s US, listed as Probe 1): 4.02 μm
D(50) ([2]; 300 s US, listed as Probe 1): 44 μm
D(90) ([2]; 300 s US, listed as Probe 1): 128 μm
amount of fines ([2]; after US treatment of 300 s, compared to polymorph C): significantly larger
particle size distribution compared to polymorph C ([2]; after ultrasound treatment): significantly smaller particle size and broader distribution
Cumulative volume distribution Q ([2]; particle size D 0.01 μm, 300 s US): 0%
Cumulative volume distribution Q ([2]; particle size D 0.01 μm, without US): 0%
Cumulative volume distribution Q ([2]; particle size D 0.0114 μm, 300 s US): 0%
Cumulative volume distribution Q ([2]; particle size D 0.0114 μm, without US): 0%
Cumulative volume distribution Q ([2]; particle size D 0.0129 μm, 300 s US): 0%
Cumulative volume distribution Q ([2]; particle size D 0.0129 μm, without US): 0%
Cumulative volume distribution Q ([2]; particle size D 0.0147 μm, 300 s US): 0%
Cumulative volume distribution Q ([2]; particle size D 0.0147 μm, without US): 0%
Cumulative volume distribution Q ([2]; particle size D 0.0167 μm, 300 s US): 0%
Cumulative volume distribution Q ([2]; particle size D 0.0167 μm, without US): 0%
Cumulative volume distribution Q ([2]; particle size D 0.0189 μm, 300 s US): 0%
Cumulative volume distribution Q ([2]; particle size D 0.0189 μm, without US): 0%
Cumulative volume distribution Q ([2]; particle size D 0.0215 μm, 300 s US): 0%
Cumulative volume distribution Q ([2]; particle size D 0.0215 μm, without US): 0%
Cumulative volume distribution Q ([2]; particle size D 0.0244 μm, 300 s US): 0%
Cumulative volume distribution Q ([2]; particle size D 0.0244 μm, without US): 0%
Cumulative volume distribution Q ([2]; particle size D 0.0278 μm, 300 s US): 0%
Cumulative volume distribution Q ([2]; particle size D 0.0278 μm, without US): 0%
Cumulative volume distribution Q ([2]; particle size D 0.0315 μm, 300 s US): 0%
Cumulative volume distribution Q ([2]; particle size D 0.0315 μm, without US): 0%
Cumulative volume distribution Q ([2]; particle size D 0.0358 μm, 300 s US): 0%
Cumulative volume distribution Q ([2]; particle size D 0.0358 μm, without US): 0%
Cumulative volume distribution Q ([2]; particle size D 0.0407 μm, 300 s US): 0%
Cumulative volume distribution Q ([2]; particle size D 0.0407 μm, without US): 0%
Cumulative volume distribution Q ([2]; particle size D 756 μm, 300 s US): 100%
Cumulative volume distribution Q ([2]; particle size D 756 μm, without US, listed as Probe 1): 92.34%
Cumulative volume distribution Q ([2]; particle size D 859 μm, 300 s US): 100%
Cumulative volume distribution Q ([2]; particle size D 859 μm, without US, listed as Probe 1): 96.59%
Cumulative volume distribution Q ([2]; particle size D 976 μm, 300 s US): 100%
Cumulative volume distribution Q ([2]; particle size D 976 μm, without US, listed as Probe 1): 99.14%
Cumulative volume distribution Q ([2]; particle size D 1110 μm, 300 s US): 100%
Cumulative volume distribution Q ([2]; particle size D 1110 μm, without US): 100%
Cumulative volume distribution Q ([2]; particle size D 1260 μm, 300 s US): 100%
Cumulative volume distribution Q ([2]; particle size D 1260 μm, without US): 100%
Cumulative volume distribution Q ([2]; particle size D 1430 μm, 300 s US): 100%
Cumulative volume distribution Q ([2]; particle size D 1430 μm, without US): 100%
Cumulative volume distribution Q ([2]; particle size D 1630 μm, 300 s US): 100%
Cumulative volume distribution Q ([2]; particle size D 1630 μm, without US): 100%
Cumulative volume distribution Q ([2]; particle size D 1850 μm, 300 s US): 100%
Cumulative volume distribution Q ([2]; particle size D 1850 μm, without US): 100%
Cumulative volume distribution Q ([2]; particle size D 2100 μm, 300 s US): 100%
Cumulative volume distribution Q ([2]; particle size D 2100 μm, without US): 100%
Cumulative volume distribution Q ([2]; particle size D 2390 μm, 300 s US): 100%
Cumulative volume distribution Q ([2]; particle size D 2390 μm, without US): 100%
Cumulative volume distribution Q ([2]; particle size D 2710 μm, 300 s US): 100%
Cumulative volume distribution Q ([2]; particle size D 2710 μm, without US): 100%
Cumulative volume distribution Q ([2]; particle size D 3080 μm, 300 s US): 100%
Cumulative volume distribution Q ([2]; particle size D 3080 μm, without US): 100%
Cumulative volume distribution Q ([2]; particle size D 3500 μm, 300 s US): 100%
Cumulative volume distribution Q ([2]; particle size D 3500 μm, without US): 100%
D(10) [2, 5]: 165 μm
D(50) [2, 5]: 404 μm
D(90) [2, 5]: 720 μm
particle size distribution compared to polymorph C ([2]; without ultrasound treatment): significantly broader particle size distribution and larger particles
bulk density [3]: 270 kg/m^3
hygroscopicity classification [4]: non-hydroscopic
